Assay [1] has as its target T1, Genome polyprotein (West Nile virus, UniProt P06935). Briefly: Inhibition of WNV NS2B-NS3 protease.
Assay [2] concerns the target T1, Genome polyprotein. Briefly: Binding affinity to WNV NS2B-NS3 protease measured as change of 1H chemical shift of Thr52 and Glu101 by NMR spectroscopy.
Assay [3] deals with T1, Genome polyprotein. Kind of assay: Inhibition of WNV NS2B-NS3 protease by enzymatic assay.
In assay [4] the target is T1, Genome polyprotein. Kind of assay: Inhibition of WNV NS2B-NS3 protease by tryptophan fluorescence assay.
Assay [5] concerns the target T1, Genome polyprotein. Kind of assay: Binding affinity to WNV NS2B(K96A)-NS3 protease measured as change of 15N chemical shift of Ala36 by NMR spectroscopy.
The target of assay [6] is T1, Genome polyprotein. Kind of assay: Binding affinity to WNV NS2B(K96A)-NS3 protease measured as change of 15N chemical shift of Val100 by NMR spectroscopy.
Assay [7] deals with T1, Genome polyprotein. Briefly: Binding affinity to WNV NS2B(K96A)-NS3 protease measured as change of 15N chemical shift of Ser137 by NMR spectroscopy.
Assay [8] deals with T1, Genome polyprotein. Briefly: Binding affinity to WNV NS2B(K96A)-NS3 protease measured as change of 1H chemical shift of Glu101 by NMR spectroscopy.

This is an account of results in ChEMBL document CHEMBL1158471, “Flaviviral protease inhibitors identified by fragment-based library docking into a structure generated by molecular dynamics” (J Med Chem, 2009).

For orientation: Ki means a measure of affinity in units of concentration, obtained from inhibition or displacement. Higher therefore signals weaker binding. What is called Kd is a measure of binding affinity in units of concentration. The term IC50 denotes the midpoint of a concentration-inhibition curve. A lower IC50 goes with higher potency.

Where a SMILES comes first, the peptide text is derived from it. [ ]: non-standard residue; d: D form. The star is where a group is joined. Nle = CCCC[C@H](N)C(=O)O; Bz = O=C(c1ccccc1)*

Regarding `Cc1ccc(C(NN=C(N)N)[PH](=O)O)cc1` (stereo not given), the affinity at Genome polyprotein [1] corresponds to a Ki of 13 µM.
Still for that read-out and setting: for `NC(N)=N/N=C\c1ccc(/C=N\N=C(N)N)cc1` the value was 35 µM.
Take `Cc1cc(CSC(=N)N)c(C)cc1CSC(=N)N`: at Genome polyprotein [2], the Kd was determined as 40 µM.
`CC1CNC(c2ccc(Nc3nnc(Nc4ccc(C5=NC(C)CN5)cc4)c4ccccc34)cc2)=N1` (stereo not given): half-maximal inhibition against Genome polyprotein [1] (IC50) was put at 24.5 µM.
With `N=C(N)Nc1ccc(C(=O)Oc2ccc([N+](=O)[O-])cc2)cc1`, at Genome polyprotein [3], it took 34.2 µM to reach half-maximal inhibition (IC50). The molecule also had a Kd at Genome polyprotein [4] of 16 µM.
Take `c1ccc2c(Nc3ccc4c(c3)CNCC4)nnc(Nc3ccc(C4=NCCN4)cc3)c2c1`: at Genome polyprotein [1], the IC50 worked out at 5.2 µM.
Still for that read-out and setting: with `NCc1ccc(Nc2nnc(Nc3ccc(C4=NCCN4)cc3)c3ccccc23)cc1` the figure was 10.6 µM.
For the molecule `CCCC[C@H](NC(=O)c1ccccc1)C(=O)N[C@@H](CCCCN)C(=O)N[C@@H](CCCNC(=N)N)C(=O)N[C@H](C=O)CCCNC(=N)N` (Bz-[Nle]KRR-aldehyde), the IC50 against Genome polyprotein [1] came to 4.1 µM.
As to `N=C(N)c1cccc(NC(=O)Nc2cccc(C(=N)N)c2)c1` [AMICARBALIDE], it took 2.8 µM to reach half-maximal inhibition against Genome polyprotein [3] (IC50). For the same molecule, the Kd at Genome polyprotein [4] amounted to 15 µM; on Genome polyprotein [5], 90 µM; on Genome polyprotein [6] it was 90 µM; at Genome polyprotein [7], 90 µM; at Genome polyprotein [8] it was 70 µM.
